# Laboratory results: PubChem BioAssay AID540268 (Broad Institute, 2011)
# Calls of active or inactive are those of the source. The rule behind the calls is not given here.
# Assay: reduced viability of parasite-Hsp90 expressing yeast – ATP luminescence, 48 h, cherry-picked samples, anti-malarial Hsp90 inhibitor project, dose response (AID 540268);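 for activity change, negative = inhibition: 0% = neutral control wells and -100% = positive control wells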
# Settings: yeast expressing the parasite Hsp90, ATP luminescence
row,SMILES,AC50
1,Cc1ccc(N=c2ssnc2Cl)cc1,3.28 µM
2,Oc1ccc(-c2c(-c3ccsc3)sc3ccccc23)cc1,2.72 µM
3,CCN1/C(=C\c2ccc3cc(C)ccc3[n+]2CC)Sc2cc(C)c(C)cc21,3.51 µM
4,COc1cc(/C=C/[N+](=O)[O-])ccc1OC(=O)c1cc2ccccc2oc1=O,1.3 µM
5,Cn1c(/C=C/c2ccc([N+](=O)[O-])o2)nc2ccccc2c1=O,6 µM
6,O=C(Nc1nc(-c2ccccn2)cs1)c1ccc(-c2ccccc2F)o1,8.88 µM
7,COc1ccc(-c2nn(-c3ccccc3)cc2C(=O)N2CCN(S(=O)(=O)c3ccccc3[N+](=O)[O-])CC2)cc1,4.14 µM
8,COc1cccc(N=Nc2ccc(O)c3ncccc23)c1,3.57 µM
9,CC(C)C(=O)NC(c1ccc(Cl)cc1Cl)c1ccc2cccnc2c1O (stereo unspecified),15.3 µM
10,CC1C/C(=C/c2ccncc2)C(=O)/C(=C/c2ccncc2)C1 (stereo unspecified),2.83 µM
11,Clc1ccccc1C(c1ccccc1)(c1ccccc1)n1ccnc1,< 0.195 µM
12,Oc1ccc(N=Nc2ccc3ccccc3c2)cc1,4.26 µM
13,Cc1ccc(-c2cc(C(=O)N3N=C(C(F)F)CC3(O)C(F)F)c3ccccc3n2)cc1C (stereo unspecified),2.93 µM
14,O=C1c2cc(Cl)ccc2-c2c(O)cc(Cl)cc21,1.4 µM
15,O=C(O)c1cccc2c1Cc1cc([N+](=O)[O-])ccc1-2,0.808 µM
16,O=[N+]([O-])c1cccc(C=NNc2ccc3ccccc3n2)c1O,3.63 µM
17,O=[N+]([O-])/C=C/c1c(Cl)cccc1Cl,0.457 µM
18,O=S(=O)(NC1CC2CCC1C2)c1ccc(Br)cc1 (stereo unspecified),0.86 µM
19,COc1ccc(OC)c(N2C(=O)NC(=O)/C(=C\c3ccc([N+](=O)[O-])s3)C2=O)c1,5.48 µM
20,CC(C)N1C(=O)/C(=C\c2nc3ccccc3c(=O)[nH]2)c2ccccc21,6.47 µM
21,Cc1cc(C2CCCCC2)n(O)c(=O)c1,1.19 µM
22,Nc1c(C(=O)Nc2ccc3c(c2)OCCO3)nnn1Cc1ccccc1Cl,5.48 µM
23,Cc1cc(C)c(S(=O)(=O)NCC23C=CC(O2)C2C(=O)N(c4ccccc4)C(=O)C23)c(C)c1 (stereo unspecified),3.21 µM
24,O=[N+]([O-])c1cc(Br)c(Nc2ccccc2)c([N+](=O)[O-])c1,8.53 µM
25,C[C@@H]1C[C@@H]2O[C@H]2/C=C\C=C\C(=O)Cc2c(Cl)c(O)cc(O)c2C(=O)O1,2.51 µM
26,Cc1ccc2[nH]c(C)c(/C=N/Nc3nc4ccccc4s3)c2c1,2.63 µM
27,CCOC(=O)c1sc(-c2ccc(C(F)(F)F)cc2)nc1O,2.59 µM

row,SMILES,AC50
1,COc1ccc(C(=O)/C=C/C(=O)N(CC(=O)NC2CCCCC2)Cc2cccs2)c(O)c1,3.3 µM
2,O=c1oc2ccccc2c(O)c1Cc1cc(Cl)c2cccnc2c1O,3.36 µM
3,Cc1ccc2nc(/C(C#N)=C\c3ccc([N+](=O)[O-])o3)[nH]c2c1,< 0.195 µM
4,Cc1ccc2c(c1C)-c1c(ccc(C)c1C)C(=O)C2=O,2.67 µM
5,Cc1cccc(N2CCN(S(=O)(=O)c3c(C)noc3/C=C/N(C)C)CC2)c1C,8.39 µM
6,COc1ccc2c(c1)OC[C@H]1[C@H]2N2C(=O)c3cc(Cl)ccc3NC(=O)[C@@]2(C)[C@H]1c1ccccc1,1.12 µM
7,O=[N+]([O-])c1ccc(C=Nc2ccc(Cl)cc2Cl)s1,8.6 µM
8,Oc1c(CN2CCN(c3ccccc3)CC2)cc(Br)c2cccnc12,7.92 µM
9,C(C#CCCCCCCCCC[n+]1ccccc1)#CCCCCCCCCC[n+]1ccccc1,4.06 µM
10,O=C(NN1C(=O)/C(=C/c2ccc(O)c([N+](=O)[O-])c2)SC1=S)c1ccccc1Cl,4.13 µM
11,COc1ccc(N=Nc2ccc(O)c3ncccc23)cc1,4.61 µM
12,O=[N+]([O-])c1cc(S(=O)(=O)C(F)(F)F)ccc1Sc1nc2ccccc2s1,3.43 µM
13,CCN1C/C(=C/c2cccc([N+](=O)[O-])c2)C(=O)/C(=C/c2cccc([N+](=O)[O-])c2)C1,3.22 µM
14,O=C1c2ccccc2NC(c2ccc(-c3ccc(C(F)(F)F)cc3)o2)N1O (stereo unspecified),7.62 µM
15,O=C1C(Cl)=C(Oc2ccccc2)C(=O)c2ccccc21,< 0.195 µM
16,CC(C)(C)c1cc(NCc2ccccn2)n2ncc(-c3ccccc3)c2n1,1.49 µM
17,O=C(N/N=C/c1ccccn1)c1cc(-c2ccc(Br)cc2)nc2ccccc12,5.33 µM
18,Cc1ccc(C(=O)N2CCN(c3ccccc3Cl)CC2)cc1[N+](=O)[O-],4.09 µM
19,CC(C)OC(=O)c1ccc(NCc2cc(O)ccc2O)cc1,6.94 µM
20,O=C(CCCNC(=O)c1ccc(Cl)cc1)OCc1cccc(Br)c1,4.54 µM
21,Oc1ccccc1-c1nc(NC2CCCC2)c2ccccc2n1,4.26 µM
22,COc1ccccc1OCCNC(=O)c1ccc(Br)cc1,< 0.195 µM
23,Cc1ccc(N2C(=O)C3C4C=CC(CNC(=S)N5CCN(c6cccc(C)c6)C(C)C5)(O4)C3C2=O)cc1 (stereo unspecified),4.65 µM
24,CCCCCCc1cc2cc(S(=O)(=O)c3ccc(Cl)cc3)c(=O)oc2cc1O,0.745 µM
25,O=C(NC(c1ccc(Cl)cc1)c1cc(Cl)c2cccnc2c1O)c1cccnc1 (stereo unspecified),24.4 µM
26,On1ccccc1=S,< 0.195 µM

# Same assay, conditions: yeast expressing the parasite Hsp90, ATP luminescence, at 26 µM (top of the series)
row,SMILES,"activity change, negative = inhibition"
1,N#C/C(=C/c1ccc(N2CCCCCC2)o1)c1ccc(Cl)cc1,-50.5% (inactive)
2,Cc1ccc(N2C(=O)C3C4C=CC(CNC(=S)Nc5ccc(F)cc5)(O4)C3C2=O)cc1 (stereo unspecified),9.97% (inactive)
3,CC1Oc2cc3oc4c(O)c(O)ccc4c(=O)c3c(O)c2C1(C)C (stereo unspecified),-0.538% (inactive)
